Experimental findings from BindingDB's records for patent US20250059174 (Enanta Pharmaceuticals, 2025) are described below.

Bounds are passed on as bounds.

The target of the assay is Mast/stem cell growth factor receptor Kit (Homo sapiens, UniProt P10721). The assay can be described thus: c-KIT Kinase Assay. The protocol: Kinase Reaction: The kinase assay was based on the recommended protocol by c-KIT Kinase Enzyme System from Promega. Recombinant human c-KIT kinase in 3 μL of assay buffer (40 mM Tris pH 7.5, 20 mM MgCl2, 0.1 mg/mL BSA and 50 μM DTT) was added to the test or high control wells and 3 μL of assay buffer was added to the low control wells. The microplate was centrifuged at 800 rotations per minute (rpm) for 60 s and incubated at room temperature (RT) for 30 min. Next, 2 μL of buffered ATP and polyEY substrate solution was added to all wells. The microplate was centrifuged at 800 rpm for 60 s and incubated at RT for 2 h. […] ADP detection with ADP-Glo™ Kinase Assay: After the kinase reaction incubation, 5 μL of ADP-Glo™ reagent was added to all wells. The microplate was centrifuged at 800 rpm for 60 s and incubated at RT for 40 min. Ten microliter (10 μL) of Kinase Detection Reagent (Luciferin-Luciferase system) was then added to all wells. The microplate was centrifuged at 800 rpm for 60 s and incubated at RT for 60 min. Kinase activity was measured as increase in luminescence at RT in an Envision plate reader equipped with 560 nm filters and operating in endpoint mode.
Mast/stem cell growth factor receptor Kit, sequence (P10721 whole entry): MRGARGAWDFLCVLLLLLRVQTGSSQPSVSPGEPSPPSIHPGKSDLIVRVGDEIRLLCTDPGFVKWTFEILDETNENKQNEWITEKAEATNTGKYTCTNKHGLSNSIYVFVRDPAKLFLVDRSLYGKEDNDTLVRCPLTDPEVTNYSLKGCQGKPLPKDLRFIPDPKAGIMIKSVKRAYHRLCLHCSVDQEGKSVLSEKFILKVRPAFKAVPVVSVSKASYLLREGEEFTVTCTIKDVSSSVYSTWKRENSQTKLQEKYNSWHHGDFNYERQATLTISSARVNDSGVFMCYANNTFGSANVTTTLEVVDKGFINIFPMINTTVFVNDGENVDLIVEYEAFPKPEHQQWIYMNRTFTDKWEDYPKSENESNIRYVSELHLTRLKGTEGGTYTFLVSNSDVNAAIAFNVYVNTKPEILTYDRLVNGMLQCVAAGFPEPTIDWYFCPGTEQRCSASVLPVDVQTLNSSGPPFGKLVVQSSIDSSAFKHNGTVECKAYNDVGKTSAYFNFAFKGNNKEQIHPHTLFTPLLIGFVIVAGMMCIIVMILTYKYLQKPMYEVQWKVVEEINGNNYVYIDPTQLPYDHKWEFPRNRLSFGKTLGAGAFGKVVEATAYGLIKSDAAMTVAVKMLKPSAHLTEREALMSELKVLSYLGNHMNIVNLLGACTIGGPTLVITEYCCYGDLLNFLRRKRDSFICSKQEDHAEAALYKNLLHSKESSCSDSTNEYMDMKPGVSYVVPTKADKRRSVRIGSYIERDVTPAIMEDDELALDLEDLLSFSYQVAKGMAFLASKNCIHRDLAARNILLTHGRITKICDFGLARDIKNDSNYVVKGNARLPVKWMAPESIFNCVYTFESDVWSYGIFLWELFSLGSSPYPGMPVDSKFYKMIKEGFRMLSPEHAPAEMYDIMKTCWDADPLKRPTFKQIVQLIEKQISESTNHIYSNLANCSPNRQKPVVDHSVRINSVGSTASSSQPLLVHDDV
As usually defined, the IC50 is the point on the concentration scale where inhibition reaches its midpoint. For `Cc1ccc(-c2noc(C3C[C@@H]3F)n2)cc1NC(=O)c1cnn2ccc(-c3cnn(C(F)F)c3)cc12` (stereo partly drawn) [US20250059174, Example 2a], the IC50 is less than 100 nM.

For the molecule `Cc1ccc(-c2noc([C@H]3C[C@@H]3F)n2)cc1NC(=O)c1cnc(N2CC(C(=O)O)C2)s1` [US20250059174, Example 98-4], the 50% inhibitory concentration (IC50) is more than 1000 nM. Take `Cc1ccc(-c2noc(C3C[C@@H]3F)n2)cc1NC(=O)c1cnn2ccc(N3C[C@H](CS(C)(=O)=O)[C@@H]3C)cc12` (stereo partly drawn) [US20250059174, Example 172]: the IC50 was less than 100 nM.
